From patent publication US6416965B2, “Screening methods for presqualene disphosphate analogs” (Brigham and Women's Hospital, priority 1997, dated 2002)

Key:
neutrophil sonicates = details: Levy et al., Nature 1997; cited from earlier work
neutrophils [1] = experiment: fMLP-stimulated intracellular calcium mobilization in FURA-2 loaded neutrophils; assay type: cell-based, human; details: PSDP 1 μM, 5 min 37° C.; 1 nM fMLP; EDTA 5 mM
Description: Inositol trisphosphate is known to be an important intracellular mediator of calcium mobilization from intracellular stores, a critical event in cellular activation (Exton, JH, Annual Review of Pharmacology and Toxicology 1996; 36:481). In order to determine the functional importance of the PSDP-mediated reduction in IP3 levels, fMLP-stimulated intracellular calcium mobilization in the presence of polyisoprenyl phosphates was measured. FURA-2 (1 μM) loaded neutrophils (10×10^6/2 ml) in the presence of EDTA (5 mM) were exposed (5 min, 37° C.) to PSDP (10−^5-10−^6 M) or EtOH (0.1%), followed by 1 nM fMLP. […] This inhibition was concentration dependent FIG. 7 and significant (n=3, mean±SEM, *P<0.05 by Student's t-test).

Phospholipase D (PLD) = experiment: Phospholipase D inhibition, choline release, Lineweaver-Burk analysis; assay type: biochemical; details: PLD 3 units/125 μL, phosphatidyl choline substrate, 30° C., pH 7.5
Source text: Phospholipase D (PLD) plays a central role in cellular activation in diverse cell types via the release of the bioactive […], phosphatidate. Several agonists operating through different classes of receptors have been defined that stimulate cellular PLD activity. No known endogenous regulators of PLD have been identified. Activation of neutrophils leads to an increase in intracellular phosphatidic acid that is generated predominantly via the hydrolysis of phosphatidyl choline by phospholipase D (Agwu, DE, et al., Journal of Clinical Investigation 1991; 88:531). Because PSDP inhibited phosphatidate mediated superoxide anion generation in human neutrophil sonicates (Levy, BD, et al., Nature 1997; 389:985), its impact on phospholipase D was determined. A purified enzyme was utilized to directly evaluate the action of PSDP with PLD. Lineweaver-Burk plots for PLD (3 units/125 μL; EC 3.1.4.4, Sigma Chemical Co.) in the presence of EtOH (0.2%) or increasing concentrations of PSDP are reported in FIG. 5. After addition of PSDP to PLD (5 min, 30° C.), phosphatidyl choline (lecithin) in 60 mM Tris/HCl+10 mM CaCl2, pH 7.5 was added (30° C.) and reactions were terminated at 30 second intervals (t0-90 sec) with Tris-HCl (1 M) plus EDTA (50 mM). Choline release was quantitated as in Abousalham A. et al. Biochimica et Biophysica Acta 1;1158 (1993). […]

[2] = test system: electroporated neutrophils; experiment: Superoxide anion generation (NADPH oxidase activity) by electroporated neutrophils; assay type: cell-based, human
Source text: To test the impact of compounds VI and VIII on neutrophil responses, the isolated lipids were introduced into neutrophils by electroporation prior to determining NADPH oxidase activity. […] Prenyl cysteine analogues can disrupt G-protein interaction with activated FMLP receptors (Scheer, A. & Gierschik, P. Biochemistry. 34,4952-4961 (1995), the teachings of which are incorporated herein by reference); therefore to determine compound VI's level of action, neutrophil superoxide anion generation was examined in the presence of phorbol 12-myristate 13-acetate (PMA), a potent trigger for O2- production which bypasses cell surface receptors to stimulate protein kinase C and subsequent NADPH assembly (see for example, Baggiolini, M., Boulay, F., Badwey, J. A. & Curnutte, J. T. FASEB J. 7, […] (1993); FIG. 3c).
After electroporation, cells in cytochrome c (0.7 mg/ml) were exposed (10 min, 37° C.) to PMA (10^−7 M), FMLP (10^−7 M) plus cytochalasin b (15 μg/ml), compound VI (1 μM) or compound VIII (1 μM) and supernatants monitored at 550 nm. Values represent the mean±SEM for n≧4.
(§1) Neutrophils (10^7/500 μl) were electroporated (1.65 kV/cm, 250 μF, Ω∞, Invitrogen Electroporator VI) at 0° C. in the presence of 10−^9-10−^6 M compound VI, VIII, FDP, FMP, squalene or vehicle (ethanol 0.2%). After electroporation, cells, in cytochrome c (0.7 mg/ml), were exposed (10 minutes, 37° C.) to either cytochalasin b (5 μg/mL) and FMLP (10^−7 M)(a) or PMA ((10^−7 M)(b) and supernatants monitored at […]. Electroporation gave a 49.9% reduction in FMLP-stimulated NADPH oxidase compared to naive cells. Values (FIGS. 4a and 4b) represent the mean±SEM for n≧3, d≧6. For adhesion (FIGS. 4c and 4d), changes in light transmittance were monitored (as in Fiore, S., Nicolaou, K. C., Caulfield, T., Kataoka, H. & Serhan, C. N. Biochem. J. 266, 25-31 (1990), the teachings of which are incorporated herein by reference) after addition of compounds VI, VIII (1.6 μM) or vehicle (0.5 min) and FMLP (0.5-5 μM) (2.5 min). Cell viability remained>99%. Values represent the mean±SEM for n=3, d=9. 1,4,5-inositol-triphosphate levels were determined (Amersham) in fresh PMN (10^7 cells) exposed (5 minutes, 37° C.) to compound VI, compound VIII (1 μM) or vehicle and stimulated with FMLP (10^−7M, 37° C.) (as in FIG. 4e). % Inhibition after 10 second exposure to FMLP is reported as mean±SEM for n=4, d≧8. *p <0.05 in Student's paired t-test compared with control, while “NS” indicates no significant change compared to incubations in the presence of vehicle (ethanol 0.2%) alone. Stereochemistry of PSDP and PSMP (FIG. 4f) were assigned by routine methods (Poulter, C. D. and Rilling, H. C. Acc. Chem. Res. 11, 307-313, (1978), the teachings of which are hereby incorporated by reference).

neutrophils [3] = experiment: Neutrophil homotypic adhesion (aggregation, light transmittance); assay type: cell-based, human
Description: as §1

CC(C)=CCC/C(C)=C/CC/C(C)=C/C1C(COP(=O)(O)OP(=O)(O)O)C1(C)CC/C=C(\C)CCC=C(C)C (stereo in doubt) [Compound VI, presqualene diphosphate]
inhibition of phosphatidate mediated superoxide anion generation in human neutrophil sonicates (neutrophil sonicates): inhibited | inhibition of fMLP-stimulated [Ca2+]i mobilization (neutrophils [1]): inhibition | Ki (Phospholipase D (PLD)): < 100 nM | inhibition of PMA activated superoxide anion generation at 10 nM ([2]; compound 10 nM, PMA 100 nM): significant inhibition still present | inhibition of PMA activated superoxide anion generation ([2]; compound 1 μM, PMA 100 nM): 44% | inhibition of neutrophil superoxide anion generation ([2]; nM-μM amounts): inhibited | inhibition of the FMLP-triggered generation of superoxide anion ([2]; nM-μM quantities introduced by electroporation, FMLP 10^-7 M plus cytochalasin b): 60% | stimulation of O2- production by the compound alone ([2]; no agonist, 1 μM (FIG. 3c)): neither compound VI nor VIII alone stimulated | stimulation of adhesion by the compound alone (neutrophils [3]; no agonist): neither compound VI nor VIII alone stimulated | inhibition of FMLP-stimulated homotypic adhesion (neutrophils [3]; μM levels): inhibited | inhibition of the aggregatory response to FMLP (homotypic adhesion) (neutrophils [3]; μM levels (1.6 μM), FMLP 0.5-5 μM, intact cells, p<0.001): 63%
